# Values quoted from earlier work as cited in US20070269386A1, “New product and use and manufacture thereof” (priority 2006, published 2007).
# Tested on: adult
structure (smiles),measurement,value
"CN1CCCC1c1cccnc1 (stereo not shown) [nicotine, 3-(1-methyl-2-pyrrolidinyl)-pyridine]",single dose that may kill an adult,Approximately 40 milligrams
